Assay results from patent US20050209295A1, “Methimazole derivatives and tautomeric cyclic thiones to inhibit cell adhesion” (priority 2004, published 2005).

Assays:
Type in all cases: cell-based, human
E-selectin [1] = test: TNF-α induced E-selectin mRNA in HAEC (Northern blot)
Protocol: (§1) Cell culture and treatment of HAEC: Human aortic endothelial cells (HAEC; Cambrex Bio Science Walkersville, Inc., Walkersville, Md.) are cultured in M199 supplemented with 8% FBS, 100 μg/ml heparin, 10 ng/ml endothelial growth factor, 100 μg/ml hypothalamus extract, 2 mM L-glutamine, 1% non-essential amino acids, 100 units/ml penicillin and 100 μg/ml streptomycin. HAEC are subcultured on gelatin pre-coated: 96-well tissue culture plates (Corning Incorporated; Corning, N.Y.) for viability assays and ELISA; 100-mm tissue culture dishes (BD Falcon; Franklin Lakes, N.J.) for Northern blot analyses, Western blot analyses and EMSA; 35-mm tissue culture dishes (Corning) for adhesion assays and on 24-well tissue culture plates for luciferase promoter assays (BD Falcon). All experiments are performed with confluent HAEC monolayers. Unless noted otherwise, HAEC are treated with 25 ng/ml TNF-α, in the absence or presence of C-10 or 0.25% DMSO (carrier control for C-10), for 2-24 hrs. The concentration of DMSO is held constant at 0.25% (unless indicated otherwise) for all of the C-10 conditions.
HAEC are washed with PBS and total RNA extracted using a commercial kit (RNeasy Mini Kit; Qiagen Inc.; Valencia, Calif.). 12 μg of total RNA per lane is resolved on 1% denaturing agarose gels containing 0.66M formaldehyde. […]

VCAM-1 promoter = test: TNF-alpha-induced VCAM-1 promoter activity, dual luciferase reporter assay in HAEC
Protocol: as §1
Dual Luciferase Assay: Four human VCAM-1 promoter deletion constructs of different length, −1641/+12, −288/+12, −228/+12, −85/+12 bp are amplified by PCR from human genomic DNA. Each upstream primer contained a restriction endonuclease Mlu I site located at the 5′-end of the primer. The downstream primer corresponding to the +12 end contained a restriction endonuclease Xho I site at the 5′-end. The PCR products are digested by Mlu I and Xho I (New England Biolabs Inc., Beverly, Mass.) and ligated into a similarly digested pGL3 basic luciferase reporter vector (Promega, Madison, Wis.). Cells are transfected for 24 hrs. with 400 ng of indicated constructs, or pGL3 basic luciferase reporter vector as control, using GeneJuice transfection reagent (Novagen Inc., Madison, Wis.). All cells are also transfected with phRL-TK (Int−) vector (Promega), which contains wildtype Renilla luciferase (Rluc) as an “internal” transfection control. Luciferase assays are conducted with the Dual-Luciferase Reporter Assay System (Promega) on a Lumat LB 9507 tube luminometer. In every experiment, each condition is run in triplicate wells. Each experiment is replicated at least twice.

IRF-1 = test: TNF-alpha-induced IRF-1 protein levels (Western blot)
Protocol: as §1
Western blot analysis: Whole cell lysates are prepared in lysis buffer (150 mM NaCl, 1% IGEPAL CA-630, 50 mM Tris-HCL pH 8.0). 20 μg of lysates are then resolved on 4-12% Bis-Tris PAGE gels under denaturing conditions using the NuPAGE Bis-Tris System (Invitrogen; Carlsbad, Calif.). Proteins are transferred to nitrocellulose membranes, which are probed with IRF-1 antibody. Subsequent binding of HRP conjugated goat anti-rabbit Ab (sc-2054, Santa Cruz Biotechnology, Inc.) is detected using Lumigen PS-3 detection reagents (Amersham Pharmacia Biotech.; Piscataway, N.J.).

E-selectin [2] = test: ELISA of TNF-α induced E-selectin protein on HAEC
Protocol: as §1
HAEC are washed with cold HBSS+, fixed in 1% formaldehyde at 4° C. for 20 min., washed with cold HBSS+, and incubated in cold M199 containing 8% FBS. Unless otherwise noted, from this point on all antibody dilutions and washes are carried out with M199 containing 8% FBS. Murine mAbs (primary mAbs) to ECAMs are added (10 μg/ml) and the HAEC incubated at 4° C. for 20 min. Following the incubation, the wells are washed and a peroxidase conjugated polyclonal (secondary) antibody to mouse IgG is added (diluted 1:50). After a 20 min. incubation at 4° C., the wells are washed and treated with OPD dissolved in phosphate citrate buffer containing sodium perborate. Following a 10 min. incubation at room temperature, the absorbance of the fluid in each well is determined at 450 nm using a micro-well plate spectrophotometer (Molecular Devices; Sunnyvale, Calif.). In every experiment, each condition is run in triplicate wells.

HAEC = HAEC viability (MTS assay and visual inspection); conditions: concentrations used in this study
Protocol: as §1

Compound: Cn1c(-c2ccccc2)cnc1S [5-Phenylmethimazole]
- effect on TNF-α induced E-selectin mRNA expression (E-selectin [1]; 2 hr. TNF-α): marginal effect
- effect on TNF-α induced E-selectin mRNA (E-selectin [1]; 24 hr. TNF-α): reduced, in a dose dependent manner
- effect on TNF-α induced promoter activities of the four VCAM-1 constructs (VCAM-1 promoter; 0.3 mM, 10 ng/ml TNF-α 6 hrs., −1641/+12, −288/+12, −228/+12, −85/+12 bp constructs): inhibits
- % INHIBITION of TNF-alpha-induced VCAM-1 promoter activity (VCAM-1 promoter; 10 :M, hVCAM-1(−228 to +12)-luciferase construct, mean ± SD): 31 ± 5%
- % INHIBITION of TNF-alpha-induced VCAM-1 promoter activity (VCAM-1 promoter; 100 :M, hVCAM-1(−228 to +12)-luciferase construct, mean ± SD): 61 ± 3%
- inhibition at 5000 µM (VCAM-1 promoter; Homo sapiens, 5.0 mM, hVCAM-1(−228 to +12)-luciferase construct, mean ± SD): 72 ± 3%
- effect on TNF-α induced IRF-1 protein expression (IRF-1; 0.5 mM or 1 mM, 2 hr. TNF-α, HAEC): reduced
- % INHIBITION of TNF-alpha-induced IRF-1 Protein levels (IRF-1; 10 :M, mean ± SD): 76 ± 12%
- inhibition at 5000 µM (IRF-1; Homo sapiens, 5 mM, mean ± SD): 95 ± 5%
- effect on TNF-α induced protein expression of E-selectin (E-selectin [2]; 4 hr. TNF-α): little to no effect
- concentration at which significant reduction of TNF-α induced E-selectin protein expression is observed (E-selectin [2]; 24 hr. TNF-α): ≥ 0.05 mM
- effect on TNF-α induced protein expression of E-selectin (E-selectin [2]; 24 hr. TNF-α): significantly reduces
- effect on HAEC viability (HAEC): little to no effect
